Reference: US20040001822A1, “Y1-isolated molecules comprising epitopes containing sulfated moieties, antibodies to such epitopes, and uses thereof” (priority 2000, published 2004)
Starred links: 1 amine or outer side, 2 acyl side, 3 side chain; linkers in the order of their positions; H or OH if unused. Primed or numbered codes have the meaning given here. No end group written: not given here. *: point of attachment. SO3H = sulfated tyrosine (Y*), O=S(=O)(O)[*:2]; SO3H″ = O=S(=O)(O)*

Columns and labels:
[1] = test system: KG-1 cells; assay: AML KG-1 model in NOD/SCID mice; type: in vivo; conditions: for percentage of KG-1 cells in bone marrow compared to untreated group 2: Doxorubicin 0.1 mg/kg 3 times per week, CONY1-Doxorubicin 75 μg/mouse 3 times per week, Mylotarg 0.2 mg/kg 1 time per week
Procedure: The in vivo mouse model for human AML uses SCID/NOD mice (Jackson Laboratories) inoculated with KG-1 cells derived from a human AML cell line.
In a first experiment, NOD/SCID mice were pretreated with 100 mg/kg CYTOXAN®. Four days post CYTOXAN® injection, KG-1 cells were injected intravenously into the tail vein of six groups of mice. (Table N, Groups 2 and 5-9). One group of mice (Table N, Group 1) was injected with PBS alone (control).
Beginning 19 days post KG-1 injection mice were treated with: CONY1, Doxorubicin, CONY1-Doxorubicin conjugate, or Mylotarg®. (Mylotarg® is a monoclonal antibody (anti CD33) conjugated chemically to calcheamicin recently approved by the FDA for treatment of AML patients age 60 and over in a first relapse.) Mice were treated once or three times per week for three weeks. One group (group 2) of KG-1 inoculated mice were left untreated. (Table N). Two other groups of mice (groups 3 and 4) were injected with KG-1 cells that were previously incubated with CONY1 or 181-scFv (a negative, non-specific control antibody) in serum free RPMI containing 1% BSA at 4° C. for 1 h. The antibodies were used at a concentration of 0.25 mg scFv/l 10^8 cells (75 μg/mouse). Before injection into the mice the preincubated KG-1 cells were washed and resuspended in RPMI. The KG-1 cells in RPMI were inoculated into mice at a concentration of 75 μg scFv/0.2 ml RPMI per mouse. Group 3 mice were inoculated with KG-1+CONY1, and group4 mice were inoculated with KG-1+181-scFv. (Table N). This treatment (group 3 and 4) was carried out one day after the inoculation of groups 1-2 and 5-9, i.e., at five days after CYTOXAN injection.
Mice were sacrificed from 60 to 65 days post cell injection. Bone marrow samples were analyzed by flow cytometry using mouse anti human CD34-FITC (IQP 144F) (or anti CD44-FITC (MCA89F, Serotec)) and Y1-Biotin/SAV-PE. Mouse IgG1-FITC (IQP 191-F) was used as an isotype control, and mouse IgG2a-FITC (MCA929F, Serotec) was used as a negative control. Flow cytometry was performed using FACSCalibur system and CellQwest software, Becton Dickinson.
An additional experiment was performed in which SCID-NOD mice were i.v. injected with 3×10^4 MOLT-4 cells/mouse 5 days post treatment with cyclophosphamide. Anti-cancer agents or PBS were injected IV three times/week, from day 14 onward. On day 60, blood was drawn, then the animals were sacrificed. Bone marrow was extracted and analyzed by FACS analysis using a commercially available antiCD44 antibody for the detection of MOLT-4 cells in the mice bone marrow cell population.

[2] = test system: washed platelets; assay: Competitive FACS: effect of synthetic GPIbα peptides on Y1 binding to washed platelets; design: species or system human
Procedure: (§1) ELISA assays were developed to evaluate the effect of the GPIb derived synthetic peptides on the binding of Y1 to purified glycocalicin. In addition, FACS analysis using washed platelets was carried out. To evaluate the importance of sulfated tyrosine within the Y1 binding site of GPIb, a competitive binding FACS analysis was used. Y1-scFv at a concentration of 1 μg was preincubated with different peptides at concentrations of 2.5 and 200 μM. After a preincubation for 30 minutes at room temperature the mixture was added to a tube containing ˜10^7 washed platelets and the binding of Y1 to the washed platelets was assessed using polyclonal rabbit anti-scFv-PE. The inhibitory effect of the peptides compared to control binding (Y1 alone) was evaluated by measuring the residual binding of Y1 to washed platelets. The peptides and the results are described in Table 1 and are similar to results that were observed using the same peptides in an ELISA assay (Table B). In both assays, a control level of Y1 binding was determined, as follows. A polystyrene microtiter maxisorb plate was coated with (a) purified glycocalicin or (b) washed platelets. After extensive washing, 0.5 μg/well of Y1 was added. The plate was then incubated with rabbit anti-scFv followed by addition of anti rabbit-HRP (horse radish peroxidase) and HRP substrate. The level of anti rabbit-HRP binding was measured by the intensity of the color produced, and the level of anti rabbit-HRP binding correlates with the level of binding of anti Y1-scFv and the level of binding of Y1. The optical density was measured at A405. Each sample was assayed in duplicate, and the average was calculated.

[3] = test system: Y1 Binding to Glycocalicin; assay: ELISA: effect of synthetic GPIbα peptides on Y1 binding to purified glycocalicin; design: species or system human; conditions: 0.25 μg/well Y1
Procedure: as §1, with “After extensive washing, 0.5 μg/well of Y1 was added.” left out
The effect of synthetic GPIbα peptides on Y1 binding to purified glycocalicin was evaluated by mixing varying concentrations of the peptides with a constant amount of Y1. After a preincubation for 30 minutes at room temperature, the mixture was added to a polystyrene microtiter maxisorb plate coated with purified glycocalicin, as described for evaluation of Y1 binding in the absence of peptides. The inhibitory effect of the peptides was evaluated by measuring the residual binding of Y1 to glycocalicin using rabbit anti Y1 scFv and anti rabbit-HRP antibodies, as described for evaluation of Y1 binding in the absence of peptides. This study was performed with four peptides representing various subsets of the sequence 268 to 285 and a control peptide. Each peptide was tested at different concentrations: 200 μM, 25 μM, 2.5 μM, and 0.5 μM.

[4] = test system: scFv Y1 binding to glycocalicin; assay: Competitive binding ELISA of sulfated peptides to Y1; design: species or system human; conditions: for Inhibition of Y1 binding to glycocalicin by peptide: peptide preincubated with scFv Y1 at 1, 10 and 100 μM
Procedure: A competitive binding ELISA assay was used to assess the importance of position of sulfated tyrosines to the binding of peptides to Y1.
Glycocalicin was immobilized on a Maxisorb plate. scFv Y1 was preincubated with a peptide of interest for 10 minutes at three different concentrations (1, 10 and 100 μM) in order to observe a dose response. (Table 12). After preincubation, the mixture (Y1+peptide) was added to the plate, and binding of scFv Y1 was assessed using polyclonal rabbit anti-VL, which recognizes the VL chain of scFv Y1, followed by anti-rabbit-HRP. In mixtures in which the peptide bound to scFv Y1, a decrease in the binding of scFv Y1 to glycocalicin compared to control binding was observed.

Chain of Y1 Binding to Glycocalicin (as listed by the source): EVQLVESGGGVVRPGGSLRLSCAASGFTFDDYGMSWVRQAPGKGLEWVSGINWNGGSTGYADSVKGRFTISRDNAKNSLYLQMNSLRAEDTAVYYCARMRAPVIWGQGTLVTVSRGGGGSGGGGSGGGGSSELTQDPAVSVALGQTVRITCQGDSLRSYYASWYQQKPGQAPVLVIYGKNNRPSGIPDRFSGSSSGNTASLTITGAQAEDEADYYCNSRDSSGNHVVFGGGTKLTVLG
Chain of scFv Y1 binding to glycocalicin (as listed by the source): as above

| Molecule | Residual Binding of Y1 (% of baseline) (Geo Mean) ([2]; peptide 2.5 μM) | Residual Binding of Y1 (% of baseline) (Geo Mean) ([2]; peptide 200 μM) | Residual Binding of Y1 (% of baseline) ([3]; peptide 0.5 μM) | Residual Binding of Y1 (% of baseline) ([3]; peptide 2.5 μM) | Residual Binding of Y1 (% of baseline) ([3]; peptide 25 μM) | Inhibition of Y1 binding to glycocalicin by peptide [4] | further results |
| --- | --- | --- | --- | --- | --- | --- | --- |
| COc1cccc2c1C(=O)c1c(O)c3c(c(O)c1C2=O)C[C@@](O)(C(=O)CO)C[C@@H]3O[C@H]1C[C@H](N)[C@H](O)[C@H](C)O1 [Doxorubicin] | – | – | – | – | – | – | reduction in the number of tumor cells in the bone marrow ([1]; additional experiment, day 60): 50%; mice that died within three weeks after treatment initiation ([1]; first experiment, group 7, 5 mg/kg, 1 time per week): Nine out of 10; percentage of KG-1 cells in bone marrow compared to untreated group 2 ([1]; first experiment): statistically significant (p<0.05) lower percentage |
| GDEGDTDLY*DY*Y*P (GDEGDTDLYDYYP; not fully specified (residues 9, 11, 12); printed as GDEGDTDLY*DY*Y*P) [P-3-S, residues 268-280 of GPIbα] | 82 % of baseline | 26 % of baseline | 80 % of baseline | 67 % of baseline | 21 % of baseline | – | – |
| GDEGDTDLY*DY*Y*PEEDTE (GDEGDTDLYDYYPEEDTE; not fully specified (residues 9, 11, 12); printed as GDEGDTDLY*DY*Y*PEEDTE) [P-1-S, residues 268-285 of GPIbα, Y* sulfated tyrosine] | 41 % of baseline | 5 % of baseline | 89 % of baseline | 62 % of baseline | 25 % of baseline | did inhibit the binding | Residual Binding of Y1 (% of baseline) ([3]; peptide 200 μM): 0 % of baseline |
| GDEGDTDLYDYYPEEDTE [P-1, residues 268-285 of GPIbα, non-sulfated] | – | 87 % of baseline | 88 % of baseline | 94 % of baseline | 71 % of baseline | – | Residual Binding of Y1 (% of baseline) ([3]; peptide 200 μM): 61 % of baseline |
| Mylotarg: monoclonal antibody (anti CD33) conjugated chemically to calcheamicin | – | – | – | – | – | – | prevalence of cancer cells in the bone marrow ([1]; additional experiment, day 60, CONY1 scFv 75 μg/mouse three times/week, Mylotarg 7 μg/mouse once a week): completely inhibited; percentage of KG-1 cells in bone marrow compared to untreated group 2 ([1]; first experiment): free of KG 1 cells |
| QATEY*EY*LDYDFLPETE (QATEY(SO3H)EY(SO3H)LDYDFLPETE) [P-Y* Y*Y, PSGL-1 n-terminus peptide, sulfated] | – | – | – | – | – | inhibited Y1 binding to glycocalicin | – |
| QATEY*EYLDY*DFLPETE (QATEY(SO3H)EYLDY(SO3H)DFLPETE) [P-Y*Y Y*, PSGL-1 n-terminus peptide, sulfated] | – | – | – | – | – | inhibited Y1 binding to glycocalicin | – |
| QATEY*EYLDYDFLPETE (QATEY(SO3H)EYLDYDFLPETE) [P-Y*YY, PSGL-1 n-terminus peptide, sulfated] | – | – | – | – | – | inhibited Y1 binding to glycocalicin | peptide concentration at which binding is inhibited efficiently ([4]; competitive ELISA, scFv Y1 on glycocalicin): 100 µM |
| QATEYEY*LDY*DFLPETE (QATEYEY(SO3H″)LDY(SO3H″)DFLPETE) [P-YY* Y*, PSGL-1 n-terminus peptide, sulfated] | – | – | – | – | – | best inhibitors | – |
| QATEYEY*LDYDFLPETE (QATEYEY(SO3H)LDYDFLPETE) [P-YY*Y, PSGL-1 n-terminus peptide, sulfated] | – | – | – | – | – | inhibited Y1 binding to glycocalicin | – |
| REEGRQHFFLLEGRSSYS [negative control peptide, reference compound] | 96 % of baseline | – | – | 100 % of baseline | 89 % of baseline | – | Residual Binding of Y1 (% of baseline) ([3]; peptide 200 μM): 85 % of baseline |
| TDLY*DY*Y*PEEDTE (TDLYDYYPEEDTE; not fully specified (residues 4, 6, 7); printed as TDLY*DY*Y*PEEDTE) [P-2-S, residues 273-285 of GPIbα] | 61 % of baseline | 7 % of baseline | 78 % of baseline | 52 % of baseline | 15 % of baseline | – | – |
